Measured values: PMC9097188, “Design, Synthesis, and Molecular Modeling Studies of a Novel Benzimidazole as an Aromatase Inhibitor” (ACS Omega, 2022)
Like-named read-outs stand apart in the source and are kept apart here. Blank lines part the entries; values can stand above or below the compound they belong to.

Legend:
[1] = test system: A549 (lung carcinoma cell line); assay: MTT cytotoxicity assay, A549; assay type: cell-based; conditions: Homo sapiens, mean of four independent studies, read-out: IC50 against A549
Protocol: (§1) In this study, all compounds were tested for antiproliferative activity using an MTT assay with doxorubicin as a control against MCF-7 (human breast adenocarcinoma cell line), A549 (lung carcinoma cell line), HepG2 (human liver carcinoma cell line), HeLa (cervical cell line), and C6 (rat glioma cell line) cell lines. Table 1 summarizes the results of four independent studies as the mean IC50 value (half-maximum inhibitory concentration).
(§2) MTT tests were used to screen the anticancer activities of compounds 5a–i. The MTT assays were carried out as stated previously.[16],[17] The anticancer activity of the final compounds was tested on […]: A549 (lung carcinoma cell line), HeLa (cervical cell line), MCF-7 (human breast adenocarcinoma cell line), HepG2 (human liver carcinoma cell line), C6 (rat glioma cell line), and NIH3T3 […] (mouse embryo fibroblast cell line). In the MTT experiments, doxorubicin and Hoechst 33342 were employed as reference drugs.

[2] = test system: MCF-7 (human breast adenocarcinoma cell line); assay: MTT cytotoxicity assay, MCF-7; assay type: cell-based; conditions: mean of four independent studies, read-out: IC50 against MCF-7
Protocol: as §1, §2

[3] = test system: C6 (rat glioma cell line); assay: MTT cytotoxicity assay, C6; assay type: cell-based; conditions: mean of four independent studies, read-out: IC50 against C6
Protocol: as §1, §2

[4] = test system: HepG2 (human liver carcinoma cell line); assay: MTT cytotoxicity assay, HepG2; assay type: cell-based; conditions: mean of four independent studies, read-out: IC50 against HepG2
Protocol: as §1, §2

[5] = test system: HeLa (cervical cell line); assay: MTT cytotoxicity assay, HeLa; assay type: cell-based; conditions: Homo sapiens, mean of four independent studies, read-out: IC50 against HeLa
Protocol: as §1, §2

human aromatase = target: T1, human aromatase (Homo sapiens, UniProt P11511); assay: Aromatase (CYP19A) Inhibitor Screening Kit (Fluorimetric), BioVision; assay type: biochemical
T1 construct: purchased BioVision
T1 sequence (P11511 1-503): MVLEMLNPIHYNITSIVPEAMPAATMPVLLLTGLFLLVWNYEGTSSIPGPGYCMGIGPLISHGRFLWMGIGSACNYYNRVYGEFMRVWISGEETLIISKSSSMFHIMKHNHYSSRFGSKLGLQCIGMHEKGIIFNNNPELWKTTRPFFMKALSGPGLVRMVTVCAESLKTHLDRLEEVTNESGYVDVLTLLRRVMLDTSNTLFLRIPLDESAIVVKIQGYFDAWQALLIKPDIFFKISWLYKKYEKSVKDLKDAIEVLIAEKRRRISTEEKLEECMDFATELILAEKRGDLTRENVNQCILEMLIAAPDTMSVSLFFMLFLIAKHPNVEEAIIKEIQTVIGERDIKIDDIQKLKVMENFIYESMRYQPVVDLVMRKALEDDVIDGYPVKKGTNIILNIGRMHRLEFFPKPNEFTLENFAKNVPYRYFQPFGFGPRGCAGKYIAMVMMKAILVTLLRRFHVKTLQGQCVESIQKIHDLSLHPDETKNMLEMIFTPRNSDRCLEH
From the text: An in vitro fluorescence-based test (Aromatase (CYP19A) Inhibitor Screening Kit (Fluorimetric), BioVision) was used to determine the inhibitory activity of the produced compounds against human aromatase.
The BioVision Aromatase (CYP19A) Inhibitor Screening Kit (Fluorometric) was used to carry out this experiment.

aromatase = conditions: 3D-QSAR data set, IC50 converted to pIC50; SI reference list; cited from earlier work
[6] = fluorimetric kit, compound dissolved in acetonitrile, read-out: IC50 aromatase inhibition
[7] = experimental validation of 3D-QSAR model, read-out: IC50 (aromatase, Table 5)

IC50 (human aromatase; [6]): 38.6 ± 1.13 µM | melting point: 266.5 to 267.9 °C
Structure (SMILES): O=C(CSc1nnc(-c2ccc3nc(-c4ccc(O)cc4)[nH]c3c2)o1)N1CCN(Cc2ccccc2)CC1 [5a, 2-((5-(2-(4-Hydroxyphenyl)-1H-benzo[d]imidazol-6-yl)-1,3,4-oxadiazol-2-yl)thio)-1-(4-benzylpiperazin-1-yl)ethan-1-one]
IC50 [1]: ≥ 100 µM | IC50 ([2]; Homo sapiens, MCF7, MTT assay): 9.96 ± 0.312 µM | IC50 ([2]; MTT assay): 9.06 ± 0.311 µM | IC50 [3]: ≥ 100 µM | IC50 [4]: 38.8 ± 0.887 µM | IC50 [5]: ≥ 100 µM

IC50 (human aromatase; [7]): 1.48 µM | IC50 (human aromatase; [6]): 1.47 ± 0.062 µM | melting point: 155.5 to 157.4 °C
Structure (SMILES): O=C(CSc1nnc(-c2ccc3nc(-c4ccc(O)cc4)[nH]c3c2)o1)N1CCN(Cc2ccc(Cl)cc2)CC1 [5b, 2-((5-(2-(4-Hydroxyphenyl)-1H-benzo[d]imidazol-6-yl)-1,3,4-oxadiazol-2-yl)thio)-1-(4-(4-chlorobenzyl)piperazin-1-yl)ethan-1-one]
IC50 [1]: ≥ 100 µM | IC50 ([2]; Homo sapiens, MCF7, MTT assay): 5.13 ± 0.211 µM | IC50 ([2]; MTT assay): 6.55 ± 0.287 µM | IC50 [3]: 24.7 ± 1.21 µM | IC50 [4]: 55.2 ± 1.46 µM | IC50 [5]: ≥ 100 µM

IC50 (human aromatase; [7]): 2.51 µM | IC50 (human aromatase; [6]): 2.51 ± 0.124 µM | melting point: > 400 °C
Structure (SMILES): O=C(CSc1nnc(-c2ccc3nc(-c4ccc(O)cc4)[nH]c3c2)o1)N1CCN(Cc2ccc(F)cc2)CC1 [5c, 2-((5-(2-(4-Hydroxyphenyl)-1H-benzo[d]imidazol-6-yl)-1,3,4-oxadiazol-2-yl)thio)-1-(4-(4-fluorobenzyl)piperazin-1-yl)ethan-1-one]
IC50 [1]: ≥ 100 µM | IC50 ([2]; Homo sapiens, MCF7, MTT assay): 6.55 ± 0.287 µM | IC50 ([2]; MTT assay): 5.13 ± 0.211 µM | IC50 [3]: 18.2 ± 1.46 µM | IC50 [4]: 17.3 ± 1.1 µM

melting point: 172.6 to 174.8 °C
Structure (SMILES): COc1ccc(-c2nc3ccc(-c4nnc(SCC(=O)N5CCN(Cc6ccccc6)CC5)o4)cc3[nH]2)cc1 [5d, 2-((5-(2-(4-Methoxyphenyl)-1H-benzo[d]imidazol-6-yl)-1,3,4-oxadiazol-2-yl)thio)-1-(4-benzylpiperazin-1-yl)ethan-1-one]
IC50 [1]: ≥ 100 µM | IC50 ([2]; Homo sapiens, MCF7, MTT assay): ≥ 100 µM | IC50 [3]: 88.5 ± 3.41 µM | IC50 [4]: ≥ 100 µM | IC50 [5]: ≥ 100 µM

melting point: 138.2 to 140.1 °C
Structure (SMILES): COc1ccc(-c2nc3ccc(-c4nnc(SCC(=O)N5CCN(Cc6ccc(Cl)cc6)CC5)o4)cc3[nH]2)cc1 [5e, 2-((5-(2-(4-Methoxyphenyl)-1H-benzo[d]imidazol-6-yl)-1,3,4-oxadiazol-2-yl)thio)-1-(4-(4-chlorobenzyl)piperazin-1-yl)ethan-1-one]
IC50 [1]: ≥ 100 µM | IC50 ([2]; Homo sapiens, MCF7, MTT assay): 45.6 ± 2.11 µM | IC50 [3]: ≥ 100 µM | IC50 [4]: ≥ 100 µM | IC50 [5]: ≥ 100 µM

melting point: 133.4 to 135.8 °C
Structure (SMILES): COc1ccc(-c2nc3ccc(-c4nnc(SCC(=O)N5CCN(Cc6ccc(F)cc6)CC5)o4)cc3[nH]2)cc1 [5f, 2-((5-(2-(4-Methoxyphenyl)-1H-benzo[d]imidazol-6-yl)-1,3,4-oxadiazol-2-yl)thio)-1-(4-(4-fluorobenzyl)piperazin-1-yl)ethan-1-one]
IC50 [1]: ≥ 100 µM | IC50 ([2]; Homo sapiens, MCF7, MTT assay): ≥ 100 µM | IC50 [3]: ≥ 100 µM | IC50 [4]: ≥ 100 µM | IC50 [5]: ≥ 100 µM

melting point: 184.4 to 186.8 °C
Structure (SMILES): CCOc1ccc(-c2nc3ccc(-c4nnc(SCC(=O)N5CCN(Cc6ccccc6)CC5)o4)cc3[nH]2)cc1 [5g, 2-((5-(2-(4-Ethoxyphenyl)-1H-benzo[d]imidazol-6-yl)-1,3,4-oxadiazol-2-yl)thio)-1-(4-benzylpiperazin-1-yl)ethan-1-one]
IC50 [1]: ≥ 100 µM | IC50 ([2]; Homo sapiens, MCF7, MTT assay): ≥ 100 µM | IC50 [3]: ≥ 100 µM | IC50 [4]: ≥ 100 µM | IC50 [5]: ≥ 100 µM

melting point: 177.5 to 178.4 °C
Structure (SMILES): CCOc1ccc(-c2nc3ccc(-c4nnc(SCC(=O)N5CCN(Cc6ccc(Cl)cc6)CC5)o4)cc3[nH]2)cc1 [5h, 2-((5-(2-(4-Ethoxyphenyl)-1H-benzo[d]imidazol-6-yl)-1,3,4-oxadiazol-2-yl)thio)-1-(4-(4-chlorobenzyl)piperazin-1-yl)ethan-1-one]
IC50 [1]: ≥ 100 µM | IC50 ([2]; Homo sapiens, MCF7, MTT assay): ≥ 100 µM | IC50 [3]: ≥ 100 µM | IC50 [4]: ≥ 100 µM | IC50 [5]: ≥ 100 µM

IC50 (human aromatase; [6]): 80.4 ± 3.12 µM | melting point: 189.9 to 191.4 °C
Structure (SMILES): CCOc1ccc(-c2nc3ccc(-c4nnc(SCC(=O)N5CCN(Cc6ccc(F)cc6)CC5)o4)cc3[nH]2)cc1 [5i, 2-((5-(2-(4-Ethoxyphenyl)-1H-benzo[d]imidazol-6-yl)-1,3,4-oxadiazol-2-yl)thio)-1-(4-(4-fluorobenzyl)piperazin-1-yl)ethan-1-one]
IC50 [1]: 4.52 ± 0.21 µM | IC50 ([2]; Homo sapiens, MCF7, MTT assay): 9.06 ± 0.311 µM | IC50 ([2]; MTT assay): 9.96 ± 0.312 µM | IC50 [3]: 6 ± 0.227 µM | IC50 [4]: 28.7 ± 1.22 µM | IC50 [5]: 42 ± 1.32 µM

Structure (SMILES): COc1cccc2c1C(=O)c1c(O)c3c(c(O)c1C2=O)C[C@@](O)(C(=O)CO)C[C@@H]3O[C@H]1C[C@H](N)[C@H](O)[C@H](C)O1 [Dox., doxorubicin]
IC50 [3]: 28.7 ± 1.23 µM

Structure (SMILES): O=C1Nc2ccccc2C1(c1[nH]c2ccccc2c1CCNS(=O)(=O)c1cccc([N+](=O)[O-])c1)c1[nH]c2ccccc2c1CCNS(=O)(=O)c1cccc([N+](=O)[O-])c1 [compound 61]
Experimental pIC50 (aromatase): 4.924

Structure (SMILES): O=C1Nc2ccccc2C1(c1[nH]c2ccccc2c1CCNS(=O)(=O)c1ccccc1[N+](=O)[O-])c1[nH]c2ccccc2c1CCNS(=O)(=O)c1ccccc1[N+](=O)[O-] [compound 62]
Experimental pIC50 (aromatase): 5.009

Structure (SMILES): Cc1ccc(S(=O)(=O)Nc2ccc3[nH]ccc3c2)cc1 [compound 63]
Experimental pIC50 (aromatase): 6.796

Structure (SMILES): O=S(=O)(Cc1ccccc1)NCCc1c[nH]c2ccccc12 [compound 64]
Experimental pIC50 (aromatase): 6.125

Structure (SMILES): O=S(=O)(NCCc1c[nH]c2ccccc12)c1ccccc1 [compound 65]
Experimental pIC50 (aromatase): 6.699

Structure (SMILES): Cc1ccc2[nH]c(-c3ccc(-c4nnc5n4N=C(c4ccc(Cl)cc4)CS5)cc3)nc2c1 [compound 79]
Experimental pIC50 (aromatase): 5.927

Structure (SMILES): Cc1ccc2nc(-c3ccc(-c4nnc5n4N=C(c4ccc(F)cc4)CS5)cc3)[nH]c2c1 [compound 80]
Experimental pIC50 (aromatase): 5.906

Structure (SMILES): Cc1ccc2nc(-c3ccc(-c4nnc5n4N=C(c4ccc(C#N)cc4)CS5)cc3)[nH]c2c1 [compound 81]
Experimental pIC50 (aromatase): 5.871

Structure (SMILES): Cc1ccc2nc(-c3ccc(-c4nnc5n4N=C(c4ccc(F)cc4F)CS5)cc3)[nH]c2c1 [compound 82]
Experimental pIC50 (aromatase): 7.432

Structure (SMILES): Fc1ccc(C2=Nn3c(nnc3-c3ccc(-c4nc5ccccc5[nH]4)cc3)SC2)cc1 [compound 101]
Experimental pIC50 (aromatase): 5.765

Structure (SMILES): Fc1ccc(C2=Nn3c(nnc3-c3ccc(-c4nc5ccc(Cl)cc5[nH]4)cc3)SC2)cc1 [compound 102]
Experimental pIC50 (aromatase): 5.643

Structure (SMILES): N#Cc1ccc(C2=Nn3c(nnc3-c3ccc(-c4nc5ccc(Cl)cc5[nH]4)cc3)SC2)cc1 [compound 103]
Experimental pIC50 (aromatase): 5.806

Structure (SMILES): Cc1[nH]c2ccccc2c1C=NNc1cccc(F)c1 [compound 104]
Experimental pIC50 (aromatase): 4.939

Structure (SMILES): Cc1[nH]c2ccccc2c1C=NNc1cc(F)cc(F)c1 [compound 105]
Experimental pIC50 (aromatase): 4.886

Structure (SMILES): Cc1[nH]c2ccccc2c1C=NNc1cccc(Cl)c1 [compound 106]
Experimental pIC50 (aromatase): 4.718

Structure (SMILES): Cc1[nH]c2ccccc2c1C=NNc1ccc(Cl)cc1 [compound 107]
Experimental pIC50 (aromatase): 5.062

Structure (SMILES): OCc1cn(-c2ccccc2Cl)c2ccccc12 [compound 108]
Experimental pIC50 (aromatase): 7.268

Structure (SMILES): OCc1cn(-c2ccccc2F)c2ccccc12 [compound 109]
Experimental pIC50 (aromatase): 6.907

Structure (SMILES): OCc1cn(-c2cccc(F)c2)c2ccccc12 [compound 110]
Experimental pIC50 (aromatase): 7.086

Structure (SMILES): N#Cc1ccc(-n2cc(CO)c3ccccc32)cc1 [compound 111]
Experimental pIC50 (aromatase): 7.301

Structure (SMILES): Clc1ccccc1-n1cc(Cn2ccnc2)c2ccccc21 [compound 112]
Experimental pIC50 (aromatase): 6.762

Structure (SMILES): Clc1ccccc1-n1cc(Cn2cncn2)c2ccccc21 [compound 113]
Experimental pIC50 (aromatase): 5.456

Structure (SMILES): Fc1ccccc1-n1cc(Cn2ccnc2)c2ccccc21 [compound 114]
Experimental pIC50 (aromatase): 6.377

Structure (SMILES): Fc1cccc(-n2cc(Cn3ccnc3)c3ccccc32)c1 [compound 115]
Experimental pIC50 (aromatase): 5.513

Structure (SMILES): N#Cc1ccc(-n2cc(Cn3ccnc3)c3ccccc32)cc1 [compound 116]
Experimental pIC50 (aromatase): 5.851
